Converted amounts (≈) assume the structure as drawn. The source made the active and inactive calls. The rule behind the calls is not given here.
Assays:
[1] = Increase in ACTH-induced steroidogenesis in bovine adrenocortical cells measured per 10^5 cells; assay type: functional, Bos taurus
P388 = test: Cytotoxicity against mouse P388 cells; assay type: functional; details: read-out: ED50 (the source's name)
[2] = Inhibition of fertilized sea urchin egg cell division; assay type: functional; details: Echinoidea, read-out: ED50 (the source's name)
Sperm = test: Inhibition of movement of sea urchin sperm at 1 ug/ml; assay type: functional, cell-based; details: Echinoidea
Echinoidea = test: Inhibition of fertilization of sea urchin egg at 1 ug/ml; assay type: functional

Compound	Activity [1] [pmol/h]	EC50 (P388) [µg/mL]	EC50 [2] [µg/mL]	Activity (Sperm)	inhibition (Echinoidea) [%]
COC(=O)/C=C1/C[C@H]2C[C@]3(O)O[C@H](C[C@@H](O)CC(=O)O[C@@H]([C@@H](C)O)C[C@@H]4C/C(=C\C(=O)OC)C[C@@](O)(O4)C(C)(C)/C=C/[C@@H](C1)O2)C[C@H](OC(=O)C(C)(C)C)C3(C)C [BRYOSTATIN 10]	1141	0.0018 (≈ 0.00223 µM)	0.16 (≈ 0.198 µM)		
CCC(=O)O[C@H](C)[C@H]1C[C@@H]2C/C(=C/C(=O)OC)C[C@@](O)(O2)C(C)(C)/C=C/[C@H]2C/C(=C\C(=O)OC)C[C@@H](C[C@]3(O)O[C@H](C[C@@H](O)CC(=O)O1)C[C@H](OC(=O)C(C)(C)C)C3(C)C)O2		0.52 (≈ 0.601 µM)		Active	80
COC(=O)/C=C1\C=C2O[C@@H](C1)C[C@H]([C@@H](C)O)OC(=O)C[C@H](O)C[C@@H]1C[C@H](OC(=O)C(C)(C)C)C(C)(C)[C@](O)(C[C@@H]3C/C(=C/C(=O)OC)C[C@H](/C=C/C2(C)C)O3)O1 [BRYOSTATIN 17]			0.3 (≈ 0.379 µM)		100
CCCC(=O)O[C@H](C)[C@H]1C[C@@H]2C/C(=C/C(=O)OC)C[C@@](O)(O2)C(C)(C)/C=C/[C@H]2C/C(=C\C(=O)OC)C[C@@H](C[C@]3(O)O[C@H](C[C@@H](O)CC(=O)O1)C[C@H](OC(=O)C(C)(C)C)C3(C)C)O2		0.32 (≈ 0.364 µM)			80
COC(=O)/C=C1/C[C@H]2C[C@]3(O)O[C@H](C[C@@H](O)CC(=O)O[C@@H]([C@@H](C)OC(C)=O)C[C@@H]4C/C(=C/C(=O)OC)C[C@@](O)(O4)C(C)(C)/C=C/[C@@H](C1)O2)C[C@H](OC(=O)C(C)(C)C)C3(C)C		0.44 (≈ 0.517 µM)			80

Source: ChEMBL document CHEMBL1150099, “An improved source of bryostatin 10, Bugula neritina from the Gulf of Aomori, Japan” (1995)
